These results are taken from the OPERA property sets (Mansouri et al. 2018).

≈ marks a conversion by molar mass, not a printed value.

The conditions of the first data set: 21 °C.
In turn, `O=C(O)COc1ccc([N+](=O)[O-])cc1[N+](=O)[O-]` yielded a solubility of 11.6 mM (≈ 2800 µg/mL).
On the same count and under the same terms, for `NC(N)=N/C(N)=N/c1ccc2ccccc2c1` the value was 2.82 mM (≈ 641 µg/mL); for `O=C(O)CNC(=O)c1ccco1`, 187 mM (≈ 31700 µg/mL).

The same data set, now with this note: 22 °C.
Compound `COCOC(=O)c1ccccc1O` yielded a solubility of 5.01 mM (≈ 913 µg/mL).
Compound `Nc1c(Br)cc(Br)c(S(=O)(=O)O)c1Br` came in with a solubility of 324 mM (≈ 133000 µg/mL). Compared with the last compound, the solubility is about 65-fold higher.
Compound `C[C@](N)(C(=O)O)c1ccccc1` had a solubility of 291 mM (≈ 48000 µg/mL).

Still in this data set, the particulars now being: 23 °C.
In turn, `N#CCC(=O)Nc1ccccc1` came in with a solubility of 1.87 mM (≈ 300 µg/mL).

The data set is the same for the next values; noted with them: 25 °C.
On to `O=C(O)CCC(=O)c1cccc2ccccc12`, for which the solubility turned out to be 0.329 mM (≈ 75 µg/mL).
Compound `Oc1c(Cl)cc(Cl)cc1Cc1ccccc1` displayed a solubility of 0.0229 mM (≈ 5.8 µg/mL). This solubility is about 14-fold lower than that of the compound before.
As to `Oc1ccc(C2CCCCC2)cc1`, the solubility stood at 0.34 mM (≈ 60 µg/mL).
`CC(C)C1CCC(=NO)C(=NO)C1` (centres undefined) yielded a solubility of 4.07 mM (≈ 750 µg/mL).
As to `CCCCCCOC(=O)CCOCC`, the solubility was found to be 1.48 mM (≈ 300 µg/mL). Against the preceding compound, the solubility is about 2.8-fold lower.
Compound `Nc1cc([N+](=O)[O-])ccc1Br` displayed a solubility of 0.277 mM (≈ 60 µg/mL). Compared with the last compound, the solubility is about 5.3-fold lower.
On to `CCCCCOC(=O)C(C)O` (centres undefined), for which the solubility was determined as 62.4 mM (≈ 10000 µg/mL).
The compound `CCCCOC(=O)C(C)OC(=O)C(C)O` (centres undefined) came in with a solubility of 42.2 mM (≈ 9200 µg/mL).
The compound `CNC(=O)N(C)C(=O)CC#N` showed a solubility of 1480 mM (≈ 230000 µg/mL). This solubility is about 35-fold higher than that of the compound before.
On the same count and under the same terms, for `NC(=O)OC(CCl)CCl` the value was 43.6 mM (≈ 7500 µg/mL); for `CCN[C@@H](C)C(=O)O` (racemic), 4490 mM (≈ 526000 µg/mL); for `CCC(C)[C@@H](NC(C)=O)C(=O)O` (mixture of isomers), 177 mM.
Take `CC(=O)Nc1ccc2c(c1)C(=O)OC2`: the solubility amounted to 2.51 mM (≈ 480 µg/mL).
As for `CCC(C)(C)C1CCC(=NO)C(=NO)C1` (centres undefined), the solubility worked out at 0.108 mM (≈ 23 µg/mL).
Take `CCSC(=S)N[C@@H](CC(=O)O)C(=O)O`: the solubility amounted to 41.1 mM (≈ 9750 µg/mL).
The compound `C1CCC2NCCCC2C1` (centres undefined) gave a solubility of 82.6 mM (≈ 11500 µg/mL).
In turn, `NC(=O)NCC(=O)NCC(=O)O` showed a solubility of 126 mM (≈ 22100 µg/mL).
In turn, `CCCCCCOC(=O)c1cccnc1` gave a solubility of 2.22 mM (≈ 460 µg/mL).
As for `O=[N+]([O-])c1ccc(O)c([N+](=O)[O-])c1-c1ccccc1`, the solubility was 0.192 mM (≈ 50 µg/mL).
For the compound `CC(=O)CC(=O)c1ccccc1`, the solubility worked out at 2.36 mM (≈ 383 µg/mL).
In turn, `O=C(NC(=O)c1cccnc1)Nc1ccccc1` had a solubility of 0.414 mM (≈ 100 µg/mL).
Consider `CCCC[C@H](NC(C)=O)C(=O)O` (racemic), for which the solubility turned out to be 307 mM (≈ 53100 µg/mL).
The compound `NNC(=O)CC(=O)NN` returned a solubility of 757 mM (≈ 100000 µg/mL).
Same read-out and setting: for `NC(=O)c1cccc(S(N)(=O)=O)c1` the value was 6.99 mM (≈ 1400 µg/mL); for `CC(=O)CC(CC(=O)O)c1ccccc1` (centres undefined), 35.8 mM (≈ 7380 µg/mL).
In turn, `O=C(O)c1ccc(Br)c([N+](=O)[O-])c1` registered a solubility of 1.08 mM (≈ 265 µg/mL). Against the preceding compound, the solubility is about 33-fold lower.
Compound `O=C(O)c1cccc2cccnc12` gave a solubility of 18 mM (≈ 3120 µg/mL).
Consider `CCCCOC(=O)CCOCC`, for which the solubility was determined as 23 mM (≈ 4000 µg/mL).
`CCCCCNC(=O)C(C)O` (centres undefined) yielded a solubility of 414 mM (≈ 66000 µg/mL).
The same measure, in the same setting: under `O=C(O)CC1NC(=O)NC1=O` (centres undefined) stands 70.5 mM (≈ 11100 µg/mL).
Turning to `N=C(NO)C(=N)NO`, the solubility worked out at 167 mM (≈ 19700 µg/mL). This solubility is about 2.4-fold higher than that of the compound before.
On the same count and under the same terms, for `CCCC(=O)N(C)N=O` the value was 29.2 mM (≈ 3800 µg/mL).
In turn, `O=C(NC1CCCCC1)c1cccnc1` registered a solubility of 4.8 mM (≈ 980 µg/mL). This solubility is about 6.1-fold lower than that of the compound before.
As for `O=C(O)CCC(=O)c1ccc2ccccc2c1`, the solubility is 0.14 mM (≈ 32 µg/mL).
Compound `Cc1cccc(I)c1O` yielded a solubility of 14.5 mM (≈ 3400 µg/mL).
Consider `O=Cc1ccc(O)c(C(=O)O)c1`, for which the solubility worked out at 2.32 mM (≈ 385 µg/mL).
On the same count and under the same terms, under `CCC1(CC)OC(=O)c2ccccc21` stands 1.37 mM (≈ 260 µg/mL); under `CC1CCC(=NO)C(=NO)C1` (centres undefined), 21.8 mM (≈ 3400 µg/mL); under `ON=C1CCCCC1`, 159 mM (≈ 18000 µg/mL).
On the same count and under the same terms, for `Cc1ccccc1N(C)C(N)=O` the value was 395 mM (≈ 64900 µg/mL); for `Cc1c(Cl)c(O)c(Cl)c(Cl)c1Cl`, 0.025 mM (≈ 6.15 µg/mL); for `C[C@@H](N)[C@@H](O)c1ccccc1`, 132 mM (≈ 20000 µg/mL).
Compound `CCC(O)CCC(C)C` (centres undefined) had a solubility of 11.8 mM (≈ 1540 µg/mL).
Turning to `CCCC(C)C(O)CC` (centres undefined), the solubility came out at 10.9 mM (≈ 1420 µg/mL). The solubility values of the last two compounds are within 1.5-fold of each other.
Take `CSCCC(NC(C)=O)C(=O)O` (racemic): the solubility stood at 1070 mM (≈ 205000 µg/mL). This solubility lies about 98-fold higher than the previous one.
The compound `O=C(O)Cc1cc(O)ccc1O` showed a solubility of 5050 mM (≈ 850000 µg/mL). Against the preceding compound, the solubility is about 4.7-fold higher.
Same read-out and setting: under `CCOP(=O)(OCC)C(Cl)(Cl)Cl` stands 17.6 mM (≈ 4500 µg/mL); under `CC1(C)OC(=O)c2cc([N+](=O)[O-])ccc21`, 0.888 mM (≈ 184 µg/mL).
In turn, `CCOP(=O)(OCC)OCC(C)C` returned a solubility of 66.6 mM (≈ 14000 µg/mL). This solubility is about 75-fold higher than that of the compound before.
Take `CCCOP(=O)(OCC)OCCC`: the solubility was 105 mM (≈ 22000 µg/mL). This solubility lies about 1.6-fold higher than the previous one.
`Cn1cnc2c1c(=O)n(CC(=O)O)c(=O)n2C` had a solubility of 42 mM (≈ 10000 µg/mL).
The same measure, in the same setting: under `CC(C)C1OC(=O)c2ccccc21` (centres undefined) stands 5.54 mM (≈ 976 µg/mL).
In turn, `CO[C@H](C)[C@H](N)C(=O)O` (racemic) gave a solubility of 3100 mM (≈ 413000 µg/mL). Against the preceding compound, the solubility is about 560-fold higher.
`CCCCCCCOC(=O)c1cccnc1` yielded a solubility of 1.81 mM (≈ 400 µg/mL).

Still in this data set, the particulars now being: 26 °C.
For `CC(C(=O)O)C(C)(C)CCC(=O)O` (centres undefined), the solubility is 29.8 mM (≈ 5600 µg/mL).

Staying with this data set, now noted: 30 °C.
Consider `COC(C)C(C)Cl` (centres undefined), for which the solubility was 10 mM (≈ 1230 µg/mL).
The compound `CCCCCCOC(=O)c1ccc(O)cc1` gave a solubility of 0.112 mM (≈ 25 µg/mL). Against the preceding compound, the solubility is about 89-fold lower.
`O=C(O)c1ccccc1C(=O)c1ccc(Br)cc1` showed a solubility of 0.983 mM (≈ 300 µg/mL).
In turn, `O=S(=O)(CCCl)CCS(=O)(=O)CCCl` registered a solubility of 35.6 mM (≈ 10100 µg/mL). This solubility is about 36-fold higher than that of the compound before.
`CCCCn1cnc2c1c(=O)n(C)c(=O)n2C` displayed a solubility of 15.6 mM (≈ 3690 µg/mL).
`CCCCOC(=O)c1ccc(O)c(I)c1`: the solubility came out at 0.125 mM (≈ 40 µg/mL).
On the same count and under the same terms, for `CS(=O)(=O)NS(C)(=O)=O` the value was 1100 mM (≈ 190000 µg/mL).

Usually solubility stands for the dissolved amount per volume that the medium holds. A high value points to a readily soluble substance.
